Results: US11981674B1, “7-isopropyl 1-ethyl/methyl 3-(substituted benzoyl)-2-substituted indolizine-1,7-dicarboxylates as larvicidal agents” (KING FAISAL UNIVERSITY, priority 2023, dated 2024)
Where two headings read alike, the source gives them in different places.

System: Anopheles arabiensis
Assay: Larvicidal screening (WHO protocol), 3rd instar larvae
Format: in vivo
Conditions: for mortality at 4 µg/mL: Anopheles arabiensis
Procedure: Anopheles arabiensis was used in the study according to the protocol described by WHO (1975) guidelines in an insectary simulating the temperature (27.5° C.), humidity (70%), and lighting (12/12) of a malaria-endemic environment. One mL of test compound (1 mg/mL) was added to 1 mL of acetone and followed by […] of distilled water to obtain a final concentration of 4 μg/mL. Thirty individuals of 3rd instar larvae were introduced into a container. Negative control was set up using the solvent (acetone) and distilled water, and a positive control included Temephos, which is an active emulsified organophosphate larvicidal used by malaria control programs. Larval mortality was examined for each container separately for 24 h and fed specially made cat food that contained less oil/fat content. The percentage of mortality was determined relative to the initial number of larvae exposed.
Differences in larval mortality between treatments were assessed with generalized linear models using a quasi-Poisson link function. Anopheles arabiensis mortality was the dependent variable, while fixed effects were test compounds and observation period (24 and 48 h). A p-value <0.05 was considered statistically significant. Throughout the text, the results are presented as the adjusted mean±the standard error.

[1] = 24 h, read-out: larval mortality rate in 24 hours
[2] = 48 h, read-out: larval mortality rate in 48 hours

Row | Molecule | mortality at 4 µg/mL (24 h, read-out: Mortality 24 h) | mortality at 4 µg/mL [1] | mortality at 4 µg/mL (48 h, read-out: Mortality 48 h) | mortality at 4 µg/mL [2] | Mortality 24 h (Anopheles arabiensis larvae exposed 24 h, 4 μg/mL, adjusted mean ± standard error) | Mortality 48 h (Anopheles arabiensis larvae exposed 48 h, 4 μg/mL, adjusted mean ± standard error) | larval mortality rate in 24 hours (in 24 hours) | larval mortality rate in 48 hours (in 48 hours)
1 | CCOC(=O)c1cc(C(=O)c2ccc(C#N)cc2)n2ccc(C(=O)OC(C)C)cc12 [Compound 3j, 1-Ethyl 7-isopropyl 3-(4-cyanobenzoyl)indolizine-1,7-dicarboxylate] | 61.6 ± 1.23% | 61.6 ± 1.23% | 66.1 ± 2.62% | 66.1 ± 2.62% | – | – | – | –
2 | CCOC(=O)c1cc(C(=O)c2ccc(F)cc2)n2ccc(C(=O)OC(C)C)cc12 [Compound 3d, 1-Ethyl 7-isopropyl 3-(4-fluorobenzoyl)indolizine-1,7-dicarboxylate] | 87.3 ± 1.64% | 87.3 ± 1.64% | 91.2 ± 3.18% | 91.2 ± 3.18% | – | – | – | –
3 | COC(=O)c1c(C(=O)OC)c2cc(C(=O)OC(C)C)ccn2c1C(=O)c1ccc(Br)cc1 [Compound 3g, 7-Isopropyl 1,2-dimethyl 3-(4-bromobenzoyl)indolizine-1,2,7-tricarboxylate] | 89.4 ± 2.42% | 89.4 ± 2.42% | 91.1 ± 2.21% | 91.1 ± 2.21% | – | – | – | –
4 | COC(=O)c1c(C(=O)OC)c2cc(C(=O)OC(C)C)ccn2c1C(=O)c1ccc(C#N)cc1 [Compound 3i, 7-isopropyl 1,2-dimethyl 3-(4-cyanobenzoyl)indolizine-1,2,7-tricarboxylate] | 62.4 ± 1.8% | 62.4 ± 1.8% | 63.8 ± 1.9% | 63.8 ± 1.9% | – | – | – | –
5 | 1-Ethyl 7-isopropyl 3-(3,5-bis(trifluoromethyl)benzoyl)indolizine-1,7-dicarboxylate [Compound 3m] | – | – | – | – | 93.45 ± 1.29% | 96.12 ± 1.90% | 93.45±1.29 | 96.12±1.90
6 | CCOC(=O)c1cc(C(=O)c2ccc(Cl)cc2)n2ccc(C(=O)OC(C)C)cc12 [Compound 3f, 1-Ethyl 7-isopropyl 3-(4-chlorobenzoyl)indolizine-1,7-dicarboxylate] | 66 ± 2.94% | 66 ± 2.94% | 69.2 ± 2.47% | 69.2 ± 2.47% | – | – | – | –
7 | COC(=O)c1c(C(=O)OC)c2cc(C(=O)OC(C)C)ccn2c1C(=O)c1cc(C(F)(F)F)cc(C(F)(F)F)c1 [Compound 3l, 7-Isopropyl 1,2-dimethyl 3-(3,5-bis(trifluoromethyl)benzoyl)indolizine-1,2,7-tricarboxylate] | 97.2 ± 2.3% | 97.2 ± 2.3% | 99.5 ± 1.49% | 99.5 ± 1.49% | – | – | – | –
8 | COP(=S)(OC)Oc1ccc(Sc2ccc(OP(=S)(OC)OC)cc2)cc1 [Temephos, reference compound] | 98.3% | – | 100% | – | – | – | – | –
9 | CCOC(=O)c1cc(C(=O)c2ccc(Br)cc2)n2ccc(C(=O)OC(C)C)cc12 [Compound 3h, 1-Ethyl 7-isopropyl 3-(4-bromobenzoyl)indolizine-1,7-dicarboxylate] | 82.3 ± 1.23% | 82.3 ± 1.23% | 86.7 ± 1.39% | 86.7 ± 1.39% | – | – | – | –
10 | COC(=O)c1c(C(=O)OC)c2cc(C(=O)OC(C)C)ccn2c1C(=O)c1ccc(Cl)cc1 [Compound 3e, 7-Isopropyl 1,2-dimethyl 3-(4-chlorobenzoyl)indolizine-1,2,7-tricarboxylate] | 67.9 ± 2.91% | 67.9 ± 2.91% | 70.9 ± 1.67% | 70.9 ± 1.67% | – | – | – | –
11 | COC(=O)c1c(C(=O)OC)c2cc(C(=O)OC(C)C)ccn2c1C(=O)c1ccccc1 [Compound 3a, 7-Isopropyl 1,2-dimethyl 3-benzoylindolizine-1,2,7-tricarboxylate] | 39.2 ± 1.64% | 39.2 ± 1.64% | 45.5 ± 2.65% | 45.5 ± 2.65% | – | – | – | –
12 | COC(=O)c1c(C(=O)OC)c2cc(C(=O)OC(C)C)ccn2c1C(=O)c1ccc(F)cc1 [Compound 3c, 7-Isopropyl 1,2-dimethyl 3-(4-fluorobenzoyl)indolizine-1,2,7-tricarboxylate] | 79.1 ± 1.65% | 79.1 ± 1.65% | 82.3 ± 2.71% | 82.3 ± 2.71% | – | – | – | –
13 | CCOC(=O)c1cc(C(=O)c2ccccc2)n2ccc(C(=O)OC(C)C)cc12 [Compound 3b, 1-Ethyl 7-isopropyl 3-benzoylindolizine-1,7-dicarboxylate] | 32.6 ± 2.44% | 32.6 ± 2.44% | 36.8 ± 1.79% | 36.8 ± 1.79% | – | – | – | –
14 | COC(=O)c1c(C(=O)OC)c2cc(C(=O)OC(C)C)ccn2c1C(=O)c1ccc(C)cc1 [Compound 3k, 7-Isopropyl 1,2-dimethyl 3-(4-methylbenzoyl)indolizine-1,2,7-tricarboxylate] | 57.5 ± 1.32% | 57.5 ± 1.32% | 60 ± 1.87% | 60 ± 1.87% | – | – | – | –
